Assay [1] deals with T1, hA3 receptor (Homo sapiens, UniProt P0DMS8).
T1 sequence (P0DMS8 1-318): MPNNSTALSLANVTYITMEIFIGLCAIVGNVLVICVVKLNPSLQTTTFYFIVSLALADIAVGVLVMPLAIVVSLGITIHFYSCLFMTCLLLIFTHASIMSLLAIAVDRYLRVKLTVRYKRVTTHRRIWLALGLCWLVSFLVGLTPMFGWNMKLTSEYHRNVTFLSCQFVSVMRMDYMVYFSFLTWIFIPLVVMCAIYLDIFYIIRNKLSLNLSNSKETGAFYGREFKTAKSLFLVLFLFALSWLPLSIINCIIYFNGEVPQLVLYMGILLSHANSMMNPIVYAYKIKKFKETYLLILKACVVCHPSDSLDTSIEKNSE
Description: Radioligand equilibrium displacement assay with [3H]PSB-11 on CHOhA3 membranes. Type of assay: binding. The following applies: no GTP; for pKi / Ki: 10 °C, 240 min, [3H]PSB-11, CHO cell membranes; for pKi: ± SEM.

The target of assay [2] is T1, hA3 receptor. Kind of assay: Competition association assay with [3H]PSB-11. Type of assay: binding. The conditions noted are these: no GTP; for koff / kon: 10 °C, ± SEM; for RT (residence time): RT = 1/(60*koff); for mean pKD (kinetic): from KD = koff/kon; for Kd: read-out: Kinetic KD, KD = koff/kon.
For assay [3], the target named is T1, hA3 receptor. Description: Dual-point competition association assay with [3H]PSB-11. The following applies: no GTP; t1 20 min, t2 240 min; agonist at IC50; 10 °C. Type of assay: binding.
The next assay deals with pain models. The following applies: five-day period; daily injection or implanted mini-pump; rat; cited from earlier work.

Values joined by “and” are separate entries in the source; they are usually repeats but may differ in a detail not shown here. Identical values can stand only once. Like-named read-outs stand apart in the source and are kept apart here.

As a reminder, the pKi is −log10 of the Ki, conventionally taken in molar units. Usually Ki stands for a measure of affinity in units of concentration, obtained from inhibition or displacement. By Kd is commonly meant the free concentration of one partner at which half of the binding sites on the other are occupied at equilibrium, for simple one-to-one binding. For `CNC(=O)[C@@]12C[C@@H]1[C@@H](n1cnc3c(NC)cc(C#Cc4ccc(Cl)s4)nc31)[C@H](O)[C@@H]2O` [MRS7140], the pKi on hA3 receptor [1] is reported as 8.3 ± 0.08. The Ki on hA3 receptor [1] (read-out: mean Ki) was 5.2 nM. On hA3 receptor [2], the koff result is listed as “(8.5 ± 0.3) × 10^-5 s^-1”, the kon entry is listed as “(3.2 ± 1.2) × 10^5 M^-1 s^-1”, the “RT (residence time)” value is given as 196 ± 8 min and the “mean pKD (kinetic)” value is recorded as 9.6. Further, the dissociation constant Kd on hA3 receptor [2] came to 0.27 ± 0.1 nM.

`OC[C@H]1O[C@@H](n2cnc3c(Nc4ccc(Cl)cc4)ncnc32)[C@H](O)[C@@H]1O` [LUF5500] gave a negative logarithm of the Ki (pKi) at hA3 receptor [1] of 7.3 ± 0.03. In addition, the Ki on hA3 receptor [1] (read-out: mean Ki) is 51 nM. In addition, the “KRI (Kinetic Rate Index)” value at hA3 receptor [3] was 0.98 (0.95; 1.01).

On hA3 receptor [1], `OC[C@H]1O[C@@H](n2cnc3c(Nc4ccc(I)cc4)ncnc32)[C@H](O)[C@@H]1O` [LUF5506] yielded a pKi of 7.6 ± 0.08. Moreover, the Ki at hA3 receptor [1] (read-out: mean Ki) was 29 nM.

In the case of `CNC(=O)[C@@]12C[C@@H]1[C@@H](n1cnc3c(NCc4cccc(Cl)c4)nc(C#Cc4ccc(F)c(F)c4)nc31)[C@H](O)[C@@H]2O` [MRS5698], in the assay with pain models, the “efficacy on prolonged exposure in in vivo pain models” value is “maintained full efficacy”.

The compound `CNC(=O)C12CC1C(n1cnc3c(NCc4cccc(Cl)c4)nc(C#Cc4ccccc4)nc31)C(O)C2O` (stereo not shown) [MRS5655] displayed a pKi at hA3 receptor [1] of 8.5 ± 0.09. Besides, the Ki at hA3 receptor [1] (read-out: mean Ki) is 3.6 nM. On hA3 receptor [2], the koff entry is recorded as “(1.8 ± 0.3) × 10^-5 s^-1”, the kon entry is on record as “(4.0 ± 0.8) × 10^5 M^-1 s^-1”, the “RT (residence time)” value is 909 ± 165 min and the “mean pKD (kinetic)” value is given as 10.3. Moreover, at hA3 receptor [2], the Kd stood at 0.046 ± 0.013 nM.

As for `CNC(=O)[C@H]1O[C@@H](n2cnc3c(NCc4cccc(I)c4)ncnc32)[C@H](O)[C@@H]1O` [IB-MECA, 1-deoxy-1-[6-[((3-Iodophenyl)methyl)amino]-9H-purin-9-yl]-N-methyl-β-D-ribofuranuronamide, reference compound], on hA3 receptor [1] (displacement curves), the “Hill Slope” value is recorded as -0.94 ± 0.05 ^ns.

`CNC(=O)C12CC1C(n1cnc3c(NC)nc(C#Cc4ccc(-c5ccccc5)cc4)nc31)C(O)C2O` (stereo not shown) [MRS5667]: at hA3 receptor [1], the pKi came out at 8.3 ± 0.05. The Ki on hA3 receptor [1] (read-out: mean Ki) is 4.6 nM. Also, at hA3 receptor [2], the koff entry was “(1.1 ± 0.3) × 10^-5 s^-1”, the kon result was “(1.8 ± 0.3) × 10^5 M^-1 s^-1”, the “RT (residence time)” value is reported as 1563 ± 464 min and the “mean pKD (kinetic)” value worked out at 10.2. The Kd on hA3 receptor [2] stood at 0.058 ± 0.02 nM.

`CNC(=O)[C@@]12C[C@@H]1[C@@H](n1cnc3c(NCc4cccc(Cl)c4)nc(C#Cc4ccc(-c5ccccc5)cc4)nc31)[C@H](O)[C@@H]2O` [MRS5679] had an inhibition constant (Ki) at hA3 receptor [1] (mean Ki) of 82 nM. For the same compound, on hA3 receptor [2], the koff result was “very slow”.

The compound `CCCNc1nc(C#Cc2ccc(Cl)s2)nc2c1ncn2[C@H]1[C@H](O)[C@H](O)[C@]2(C(=O)NC)C[C@H]12` [MRS7154] came in with a pKi at hA3 receptor [1] of 8.7 ± 0.06. Further, the Ki on hA3 receptor [1] (read-out: mean Ki) is 2.2 nM. Also, at hA3 receptor [2], the koff entry was “(6.2 ± 1.2) × 10^-5 s^-1”, the kon result was “(4.0 ± 0.7) × 10^5 M^-1 s^-1”, the “RT (residence time)” value is 270 ± 51 min and the “mean pKD (kinetic)” value was found to be 9.8. Further, the Kd on hA3 receptor [2] was determined as 0.15 ± 0.04 nM.

On to `CNC(=O)C12CC1C(n1cnc3c(N(C)C)nc(C#Cc4ccc(Cl)s4)nc31)C(O)C2O` (stereo not shown) [MRS7158], for which, on hA3 receptor [1] (read-out: mean Ki), the Ki was 618 nM.

In the case of `OC[C@H]1O[C@@H](n2cnc3c(Nc4cccc(Cl)c4)ncnc32)[C@H](O)[C@@H]1O` [LUF5501], the pKi on hA3 receptor [1] is given as 7.5 ± 0.02. Besides, the Ki on hA3 receptor [1] (read-out: mean Ki) was 31 nM. Besides, at hA3 receptor [2], the koff entry is on record as “(1.6 ± 0.2) × 10^-3 s^-1”, the kon result is on record as “(1.7 ± 0.2) × 10^5 M^-1 s^-1”, the “RT (residence time)” value is reported as 10 ± 1.3 min and the “mean pKD (kinetic)” value worked out at 8.0. Further, the Kd on hA3 receptor [2] is 9.2 ± 1.4 nM. Also, the “difference between kinetic pKD and pKi” value on hA3 receptor [2] (pKD higher than pKi) was 0.5 log-unit.

As for `CNC(=O)[C@H]1O[C@@H](n2cnc3c(N)ncnc32)[C@H](O)[C@@H]1O` [MECA, 5′-N-methylcarboxamidoadenosine, reference compound], on hA3 receptor [1], the pKi was 7.4 ± 0.04. In addition, the Ki on hA3 receptor [1] (read-out: mean Ki) is 42 nM. The “KRI (Kinetic Rate Index)” value on hA3 receptor [3] was 1.24 and 1.24 ± 0.09.

The values are drawn from paper PMC5959751 (Biochemical pharmacology, 2018).
